# Measurements: patent publication US20100173915A1, “PHARMACEUTICAL COMPOSITIONS FOR THE TREATMENT OF CHRONIC HEART FAILURE COMPRISING PYRAZOLOPYRIMIDINONE DERIVATIVE COMPOUND” (DONG-A PHARMACEUTICAL. CO., LTD, priority 2007, published 2010)
# What was measured:
# [1] = test system: collagen deposition (ventricular fibrosis); assay: Collagen deposition in left ventricular tissue (Masson's trichrome) as marker of ventricular fibrosis; format: in vivo, Sprague-Dawley rats; details: CHF rats, 30 mg/kg orally for 8 weeks, mean±SD, CHF control 0.928±0.228, normal 0.384±0.103
# Description: (§1) Male Sprague-Dawley rats, weighing 220-240 g, were randomly divided into three groups: a normal control group
# (§2) (Normal), a heart failure control group (CHF) and a treatment group (CHF plus cpd.1), each group consisting of seven rats. The pyrazolopyrimidinone derivative was orally administered to heart failure-developed animals of the treatment group in a dose of 30 mg/kg.
# (§3) Normal control animals were subjected to a sham operation. […] After 8 weeks, 5 ml/kg of a solvent was orally administered to the normal control and heart failure control groups for 8 weeks, and the pyrazolopyrimidinone derivative was orally administered to the treatment group at a dose of 30 mg/kg for 8 weeks. Then, rats were anesthetized with pentobarbital (50 mg/kg, i.p.), and subjected to M-mode echocardiography in order to evaluate interventricular septum wall thickness (IWT) at end-systole (S) and end-diastole (D) of the left ventricle, posterior left ventricular wall thickness (PWT), left ventricular end-systolic dimension (LVESD), and left ventricular end-diastolic dimension (LVEDD). The relative wall thickness (RWT) was calculated according to the following equation: [IWT(D)+PWT(D)]/LVEDD, and is given in Table 1, below.
# (§4) After the echocardiographic measurements, blood samples were collected from abdominal aortas to prepare serum samples. […] All values are expressed as mean±SD.
# [2] = test system: chronic heart failure-induced rats (abdominal aorta-to-inferior vena cava fistula); assay: M-mode echocardiography in aortocaval fistula rat model of chronic heart failure; format: in vivo, Sprague-Dawley rats; details: CHF rats, 30 mg/kg orally for 8 weeks, mean±SD
# Description: as §3, with “Male Sprague-Dawley rats, weighing 220-240 g, were randomly divided into three groups: a normal control group (Normal), a heart failure control group (CHF) and a treatment group (CHF plus cpd.1), each group consisting of seven rats. The pyrazolopyrimidinone derivative was orally administered to heart failure-developed animals of the treatment group in a dose of 30 mg/kg. Normal” for “Normal”
# [3] = Physicochemical properties: solubility
# [4] = test system: atrial natriuretic peptide (ANP); assay: Serum atrial natriuretic peptide (ANP) levels in heart failure rats; format: in vivo, Sprague-Dawley rats; details: CHF rats, 30 mg/kg orally for 8 weeks; mean±SD; CHF control 0.040±0.004, normal 0.029±0.003
# Description: as §1, §2, §3, §4
# [5] = target: phosphodiesterase-5 (PDE-5) (Homo sapiens, UniProt O76074); details: cited from earlier work
# ANP mRNA = ANP mRNA levels in left ventricular tissue by RT-PCR; format: in vivo, Sprague-Dawley rats; details: CHF rats, 30 mg/kg orally for 8 weeks, mean±SD, CHF control 0.963±0.114, normal 0.607±0.169
# Description: as §1, §2, §3, §4
# [6] = Physicochemical properties: pKa
# [7] = In vivo half-life compared to sildenafil; details: longer than sildenafil
smiles,measurement,setting,value
"CCCOc1ccc(S(=O)(=O)NCCC2CCCN2C)cc1-c1nc2c(CCC)nn(C)c2c(=O)[nH]1 (stereo not shown) [cpd.1, 5-[2-propyloxy-5-(1-methyl-2-pyrrolidinyleneamidosulfonyl)phenyl]-1-methyl-propyl-1,6-dihydro-7H-pyrazolo(4,3-d)pyrimidine-7-one]",amount of collagen deposition in ventricular tissue,[1],0.604±0.214
same,"RWT, relative wall thickness [IWT(D)+PWT(D)]/LVEDD","[2]; CHF control 0.34 ± 0.02, normal 0.42 ± 0.05",0.42 ± 0.05
same,"IWT(D), interventricular septum wall thickness at end-diastole","[2]; CHF control 1.56 ± 0.09, normal 1.81 ± 0.20",1.74 ± 0.13 mm
same,"PWT(D), posterior left ventricular wall thickness at end-diastole","[2]; CHF control 1.64 ± 0.11, normal 1.83 ± 0.13",1.78 ± 0.04 mm
same,"PWT(S), posterior left ventricular wall thickness at end-systole","[2]; CHF control 2.54 ± 0.18, normal 2.89 ± 0.15",2.80 ± 0.10 mm
same,"IWT(S), interventricular septum wall thickness at end-systole","[2]; CHF control 2.56 ± 0.11, normal 2.83 ± 0.17",2.74 ± 0.11 mm
same,"LVESD, left ventricular end-systolic dimension","[2]; CHF control 6.20 ± 0.70, normal 5.43 ± 0.31",4.68 ± 0.38 mm
same,"LVEDD, left ventricular end-diastolic dimension","[2]; CHF control 9.75 ± 0.85, normal 8.69 ± 0.56",8.45 ± 0.62 mm
same,"solubility in acetic acid, methanol and chloroform","[3]; acetic acid, methanol and chloroform",readily dissolved
same,solubility in water,[3]; water,difficult to dissolve in water
same,serum ANP levels,[4],0.033 ± 0.003 ng/mL
same,inhibitory activity against PDE-5,[5],strong and selective inhibitory activity
same,ANP mRNA levels in left ventricular tissues,ANP mRNA,0.739±0.120
same,pKa1,[6],about 6.5
same,pKa2,[6],about 12.5
same,in vivo half-life relative to sildenafil,[7],3 times
